According to US4804668A, “Thiazole derivatives and medical compositions thereof” (Zenyaku Kogyo Kabushiki Kaisha, priority 1985, dated 1989):

Experiments:
[1] = Acute toxicity (Litchfield-Wilcoxon method), intraperitoneal injection; set-up: species or system mouse (6-weeks-old male ddY); details: mouse, in vivo, ip, male ddY mice, 6 weeks old, 19-24 g
Protocol: (2) The acute toxicity of the compound of the formula I was determined according to the Litchfield-Wilcoxon method, J. Pharm. Exp. Ther., 96, 99 (1949) using 6-weeks-old male ddY mice (having a bodyweight of 19-24 g) while administrating the sample compound in intraperitonial injection.

isolated left atrium = test: Effect on contractile force of isolated left atrium (electrically stimulated, Magnus's bath); set-up: species or system guinea pig (male Hartley, 7 weeks old); details: Corresponding Concentration 1 × 10^-4 (mol); isolated guinea pig left atrium, Krebs-Henseleit solution, stimulated at 0.5 cps, 5 msec, 20% above threshold
Protocol: (1) The contractile force of left atrium was tested according to the method described in Basic Lectures of Medicine Development, Volume V, Pharmacological Test Methods, Part 2, page 535 (1971). A 7-weeks-old male Hartley guinea pig (having a bodyweight of about 350 g) was killed by a blow on a head. The chest was opened and the heart was removed and placed in Krebs-Henseleit solution (prepared by adding distilled water to 6.92 g of sodium chloride, 0.35 g of calcium chloride, 0.29 g of magnesium sulfate, 0.16 g of mono-basic potassium phosphate, 2.1 g of sodium bicarbonate and 1.8 g of glucose so that the total amount was 1 l) which sufficiently bubbled with oxygen gas. Threads were tied to each tip of the left atrium. One thread was attached to a fixed pin in Magnus's bath and the other to a force-displacement transducer connected to an electric amplifier and recorder. The atrium was stimulated electrically at 0.5 cps, 5 msec and a voltage of 20% above threshold. The preparation is mounted in Krebs-Henseleit solution through which 95% oxygen gas and 5% carbon dioxide was blown. Then the samples were added.
Further, the above-mentioned tests were carried out by using following apparatuses.
Magnus's bath: supplied by Kabushiki Kaisha Natsume Seisakusho
Recorder: Model WI-680G supplied by Nippon Koden Kabushiki Kaisha
Force displacement transducer: supplied by Nippon Koden Kabushiki Kaisha
Electrical amplifier: Model AP-600G supplied by Nippon Koden Kabushiki Kaisha
Programmed electrosphygmonometer: supplied by Nippon Koden Kabushiki Kaisha

SMILES	LD50 [1] [mg/kg]	Maximum Contractile Force (isolated left atrium)
Cc1nc(C(N)=O)sc1-c1ccncc1 [4-Methyl-5-(4-pyridinyl)-thiazole-2-carboxamide]	230	1,325 ± 132 mg
COC(=O)c1nc(C)c(-c2ccncc2)s1 [Methyl 4-methyl-5-(4-pyridinyl)-thiazole-2-carboxylate]	–	446 ± 91 mg
Cc1nc(C#N)sc1-c1ccncc1 [R1 = --CN, R2 = --CH3, R3 = 4-pyridinyl, 2-cyano-4-methyl-5-(4-pyridinyl)-thiazole]	–	558 ± 123 mg
CNC(=O)c1nc(C)c(-c2ccncc2)s1 [R1 = --CONHCH3, R2 = --CH3, R3, N,4-Dimethyl-5-(4-pyridinyl)-thiazole-2-carboxamide]	–	510 ± 45 mg
